What was measured:
Type in all cases: functional, cell-based
HEC-1B cell line = experiment: In vitro cytotoxicity against human tumor cell line HEC-1-B
Caov-3 cell line = experiment: In vitro cytotoxicity against human tumor cell line CAOV-3
DLD-1 = experiment: In vitro cytotoxicity against human tumor cell line DLD-1
A549 = experiment: In vitro cytotoxicity against human tumor cell line A549
[1] = tested on: KATO III stomach cancer cell line; experiment: In vitro cytotoxicity against human tumor cell line KATO-III

Compound | IC50 (HEC-1B cell line) | IC50 (Caov-3 cell line) | IC50 (DLD-1) | IC50 (A549) | IC50 [1]
CCCNCCc1c2c(nc3cc4c(cc13)OCCO4)-c1cc3c(c(=O)n1C2)COC(=O)C3(O)CC (stereo not drawn) | > 100 µM | > 100 µM | – | – | –
CCC1(O)C(=O)OCc2c1cc1n(c2=O)Cc2c-1nc1ccccc1c2CCNC(C)C (stereo not drawn) | – | – | 7.3 nM | 0.26 nM | 1.6 nM
CCC(C)NCCc1c2c(nc3cc4c(cc13)OCCO4)-c1cc3c(c(=O)n1C2)COC(=O)C3(O)CC (stereo not drawn) | 3.29 µM | 2 µM | – | – | –
CCN(CC)CCNCCc1c2c(nc3cc4c(cc13)OCCO4)-c1cc3c(c(=O)n1C2)COC(=O)C3(O)CC (stereo not drawn) | 12.1 µM | > 100 µM | – | – | –
CCCCNCCc1c2c(nc3cc4c(cc13)OCO4)-c1cc3c(c(=O)n1C2)COC(=O)C3(O)CC (stereo not drawn) | 4.68 µM | 62 µM | – | – | –
CCC(C)CNCCc1c2c(nc3cc4c(cc13)OCO4)-c1cc3c(c(=O)n1C2)COC(=O)C3(O)CC (stereo not drawn) | 2.71 µM | 6.57 µM | – | – | –
CCCNCCc1c2c(nc3cc4c(cc13)OCO4)-c1cc3c(c(=O)n1C2)COC(=O)C3(O)CC (stereo not drawn) | 2.11 µM | 63 µM | 26 nM | 0.11 nM | –
CCNCCc1c2c(nc3cc4c(cc13)OCCO4)-c1cc3c(c(=O)n1C2)COC(=O)C3(O)CC (stereo not drawn) | 0.19 µM | – | – | 0.5 nM | –
CCC1(O)C(=O)OCc2c1cc1n(c2=O)Cc2c-1nc1cc3c(cc1c2CCNC(C)C)OCO3 (stereo not drawn) | 0.67 µM | – | 8.9 nM | – | 45 nM
CCC1(O)C(=O)OCc2c1cc1n(c2=O)Cc2c-1nc1cc3c(cc1c2CCNC(C)C)OCCO3 (stereo not drawn) | 12.8 µM | 2.32 µM | – | – | –
CCC(C)NCCc1c2c(nc3cc4c(cc13)OCO4)-c1cc3c(c(=O)n1C2)COC(=O)C3(O)CC (stereo not drawn) | 14.8 µM | 1.51 µM | – | – | –
CCC1(O)C(=O)OCc2c1cc1n(c2=O)Cc2c-1nc1cc3c(cc1c2CCNCC(C)C)OCCO3 (stereo not drawn) | 3.65 µM | 7.12 µM | – | – | –
CC[C@@]1(O)C(=O)OCc2c1cc1n(c2=O)Cc2cc3ccccc3nc2-1 [CAMPTOTHECIN] | 0.06 µM | 0.0029 µM | 14 nM | 0.33 nM | 46 nM
CCC1(O)C(=O)OCc2c1cc1n(c2=O)Cc2c-1nc1cc3c(cc1c2CCNCC(C)C)OCO3 (stereo not drawn) | 10.1 µM | 21.9 µM | – | – | –
CCC(C)CNCCc1c2c(nc3cc4c(cc13)OCCO4)-c1cc3c(c(=O)n1C2)COC(=O)C3(O)CC (stereo not drawn) | 3.44 µM | 3.5 µM | – | – | –
CCNCCc1c2c(nc3cc4c(cc13)OCO4)-c1cc3c(c(=O)n1C2)COC(=O)C3(O)CC (stereo not drawn) | 6.06 µM | 33 µM | – | 0.094 nM | 2.9 nM
CCCCNCCc1c2c(nc3cc4c(cc13)OCCO4)-c1cc3c(c(=O)n1C2)COC(=O)C3(O)CC (stereo not drawn) | 3.65 µM | 7.12 µM | – | – | –

Source: ChEMBL document CHEMBL1131880, “Synthesis and in vitro cytotoxicity of hexacyclic camptothecin analogues” (Bioorg Med Chem Lett, 1999)
